Values quoted from earlier work in patent publication US20040053283A1, “Gene 4” (priority 2000, published 2004).

Key:
[1] = tested on: tissue culture model of cerebral ischemia
[2] = tested on: rat stroke model (middle ear cerebral artery occlusion); conditions: in vivo

O=C(O)CCC(CP(=O)(O)O)C(=O)O (stereo not shown) [2-PNPA, 2-(phosphonomethyl)pentanedioic acid]
protection from cellular injury ([1]; 10 μM, tissue culture model of cerebral ischemia): 85% | protective effect ([1]; even one hour after the ischemia): significant | neuronal protection ([2]; rat stroke model (middle ear cerebral artery occlusion)): high degree of neuronal protection | tolerability ([2]; rat stroke model, at levels that produced a high degree of neuronal protection): well tolerated
